{
  "source": "patent US11400079B2",
  "about": "“Antibacterial monobactams” (University of Notre Dame du Lac, priority 2017, dated 2022)",
  "key": {"[1]": {"tested_on": "panel of Gram-negative and Gram-positive bacteria", "test": "Antibacterial activity against a panel of bacteria", "assay_type": "cell-based", "protocol": "(§1) General Methods. All solvents and reagents were obtained from commercial sources and used without further purification unless otherwise stated. General methods of purification of compounds involved the use column chromatography with silica gel (230-400 mesh) purchased from Silicycle, Quebec City, Canada. The reactions were monitored by TLC on precoated Merck 60 F254 silica gel plates and visualized using UV light (254 nm).\n(§2) Antibacterial assays were performed using iron depleted media as described previously (J. Med. Chem. 2017, 60, 4577)."}, "A.baumannii ISR14-005": {"tested_on": "A.baumannii ISR14-005", "test": "MIC antibacterial assay (iron depleted media)", "assay_type": "cell-based, Acinetobacter baumannii", "conditions": "read-out: MIC", "protocol": "as §1, §2"}, "P. aeruginosa ARC 3502": {"tested_on": "P. aeruginosa ARC 3502", "test": "MIC antibacterial assay (iron depleted media)", "assay_type": "cell-based", "conditions": "Pseudomonas aeruginosa, read-out: MIC", "protocol": "as §1, §2"}, "[2]": {"tested_on": "Salmonella typhimurium ATCC13311", "test": "MIC antibacterial assay (iron depleted media)", "assay_type": "cell-based", "conditions": "Salmonella enterica; Salmonella typhimurium ATCC13311; MH2 broth with 160 μM bipyridyl added; read-out: MIC", "protocol": "as §1, §2"}, "Proteus mirabilis X235": {"tested_on": "Proteus mirabilis X235", "test": "MIC antibacterial assay (iron depleted media)", "assay_type": "cell-based", "conditions": "Proteus mirabilis X235; MH2 broth with 160 μM bipyridyl added; read-out: MIC", "protocol": "as §1, §2"}, "P. aeruginosa ISR-14-003": {"tested_on": "P. aeruginosa ISR-14-003", "test": "MIC antibacterial assay (iron depleted media)", "assay_type": "cell-based", "conditions": "read-out: MIC", "protocol": "as §1, §2"}, "[3]": {"tested_on": "A. baumannii ATCC17978-PNT-165", "test": "MIC antibacterial assay (iron depleted media)", "assay_type": "cell-based", "conditions": "Acinetobacter baumannii", "protocol": "as §1, §2"}, "[4]": {"tested_on": "Enterobacter aerogenes X816", "test": "MIC antibacterial assay (iron depleted media)", "assay_type": "cell-based", "conditions": "Klebsiella aerogenes; Enterobacter aerogenes X816; MH2 broth with 160 μM bipyridyl added; read-out: MIC", "protocol": "as §1, §2"}, "E. coli DCO": {"tested_on": "E. coli DCO", "test": "MIC antibacterial assay (iron depleted media)", "assay_type": "cell-based", "conditions": "Escherichia coli; E. coli DCO; MH2 broth with 160 μM bipyridyl added; read-out: MIC", "protocol": "as §1, §2"}, "P. aeruginosa ISR-14-004": {"tested_on": "P. aeruginosa ISR-14-004", "test": "MIC antibacterial assay (iron depleted media)", "assay_type": "cell-based", "conditions": "read-out: MIC", "protocol": "as §1, §2"}, "P. aeruginosa KW799/wt": {"tested_on": "P. aeruginosa KW799/wt", "test": "MIC antibacterial assay (iron depleted media)", "assay_type": "cell-based", "conditions": "Pseudomonas aeruginosa; P. aeruginosa KW799/wt; MH2 broth with 160 μM bipyridyl added; read-out: MIC", "protocol": "as §1, §2"}, "[5]": {"tested_on": "Citrobacter freuendii ATCC 29063", "test": "MIC antibacterial assay (iron depleted media)", "assay_type": "cell-based", "conditions": "ATCC29063; Citrobacter freuendii ATCC 29063; MH2 broth with 160 μM bipyridyl added; read-out: MIC", "protocol": "as §1, §2"}, "S. aureus SG 511": {"tested_on": "S. aureus SG 511", "test": "MIC antibacterial assay (iron depleted media)", "assay_type": "cell-based", "conditions": "Staphylococcus aureus, SG511; S. aureus SG 511; MH2 broth with 160 μM bipyridyl added; read-out: MIC", "protocol": "as §1, §2"}, "P. aeruginosa 01": {"tested_on": "P. aeruginosa 01", "test": "MIC antibacterial assay (iron depleted media)", "assay_type": "cell-based", "conditions": "Pseudomonas aeruginosa; P. aeruginosa 01; MH2 broth with 160 μM bipyridyl added; read-out: MIC", "protocol": "as §1, §2"}, "A. baumannii ATCC 17961": {"tested_on": "A. baumannii ATCC 17961", "test": "MIC antibacterial assay (iron depleted media)", "assay_type": "cell-based", "conditions": "Acinetobacter baumannii, ATCC17961; A. baumannii ATCC 17961; MH2 broth with 160 μM bipyridyl added; read-out: MIC", "protocol": "as §1, §2"}, "[6]": {"tested_on": "A. baumannii ATCC BAA 1797", "test": "MIC antibacterial assay (iron depleted media)", "assay_type": "cell-based", "conditions": "Acinetobacter baumannii, BAA1797; A. baumannii ATCC BAA 1797; MH2 broth with 160 μM bipyridyl added; read-out: MIC", "protocol": "as §1, §2"}, "P. aeruginosa ARC 3506": {"tested_on": "P. aeruginosa ARC 3506", "test": "MIC antibacterial assay (iron depleted media)", "assay_type": "cell-based", "conditions": "Pseudomonas aeruginosa, ARC3506, P. aeruginosa ARC 3506, read-out: MIC", "protocol": "as §1, §2"}, "Gram-negative bacteria": {"tested_on": "Gram-negative bacteria", "test": "Antibacterial activity against tested Gram-negative strains (summary in words)", "assay_type": "cell-based", "conditions": "tested strains of Gram-negative bacteria", "protocol": "as §1, §2"}, "[7]": {"tested_on": "A. baumannii ATCC 17978-PNT-320", "test": "MIC antibacterial assay (iron depleted media)", "assay_type": "cell-based, Acinetobacter baumannii", "protocol": "as §1, §2"}, "[8]": {"tested_on": "A. baumannii ATCC BAA 1800", "test": "MIC antibacterial assay (iron depleted media)", "assay_type": "cell-based, Acinetobacter baumannii", "conditions": "tazobactam alone @ 10 μg/ml", "protocol": "as §1, §2"}, "[9]": {"tested_on": "A. baumannii ATCC BAA 1793", "test": "MIC antibacterial assay (iron depleted media)", "assay_type": "cell-based, Acinetobacter baumannii", "conditions": "A. baumannii ATCC BAA 1793", "protocol": "as §1, §2"}, "A. baumannii ARC 5079": {"tested_on": "A. baumannii ARC 5079", "test": "MIC antibacterial assay (iron depleted media)", "assay_type": "cell-based, Acinetobacter baumannii", "conditions": "A. baumannii ARC 5079", "protocol": "as §1, §2"}, "B. dolosa AU0018": {"tested_on": "B. dolosa AU0018", "test": "MIC antibacterial assay (iron depleted media)", "assay_type": "cell-based", "conditions": "Burkholderia dolosa; B. dolosa AU0018; MH2 broth with 160 μM bipyridyl added; read-out: MIC", "protocol": "as §1, §2"}, "[10]": {"conditions": "compound alone, MH2 broth with 160 μM bipyridyl added"}},
  "note": "Counter-ions that a name gives are not always drawn. Like-named read-outs stand apart in the source and are kept apart here.",
  "data": [
    {"compound": "COC(=O)CSCC1C(NC(=O)Cc2ccccc2)C(=O)N1S(=O)(=O)[O-].[K+]", "note": "(stereo not drawn) [Compound 24, Potassium 2-(((2-methoxy-2-oxoethyl)thio)methyl)-4-oxo-3-(2-phenylacetamido) azetidine-1-sulfonate]", "values": [
      {"measurement": "antibacterial activity (in words)", "setting": "[1]; panel of Gram-negative and Gram-positive bacteria", "value": "not active"},
      {"measurement": "antibacterial activity (MIC)", "setting": "[1]; tested strains", "value": "> 50", "unit": "µM"}
    ]},
    {"compound": "CO/N=C(\\C(=O)NC1C(=O)N(S(=O)(=O)O)[C@H]1CSCCN)c1cnc(N)s1", "note": "(stereo partly drawn) [Compound 35, (E)-3-(2-(2-aminothiazol-5-yl)-2-(methoxyimino)acetamido)-2-(((2-ammonioethyl)thio)methyl)-4-oxoazetidine-1-sulfonate, potassium salt]", "values": [
      {"measurement": "MIC", "setting": "A.baumannii ISR14-005; Acinetobacter baumannii, ISR14005, A. baumannii ISR14-005 (clinical isolate), compound alone, MH2 broth with 160 μM bipyridyl added", "value": "> 50", "unit": "µM"},
      {"measurement": "MIC", "setting": "P. aeruginosa ARC 3502; ARC3502, compound alone, MH2 broth with 160 μM bipyridyl added", "value": "> 50", "unit": "µM"},
      {"measurement": "MIC", "setting": "[2]", "value": 12.5, "unit": "µM"},
      {"measurement": "MIC", "setting": "Proteus mirabilis X235", "value": 12.5, "unit": "µM"},
      {"measurement": "MIC", "setting": "P. aeruginosa ISR-14-003; Pseudomonas aeruginosa, ISR14003, P. aeruginosa ISR-14-003 (clinical isolate), compound alone, MH2 broth with 160 μM bipyridyl added", "value": "> 50", "unit": "µM"},
      {"measurement": "MIC", "setting": "[3]", "value": 50, "unit": "µM"},
      {"measurement": "MIC", "setting": "[4]", "value": 0.2, "unit": "µM"},
      {"measurement": "MIC", "setting": "E. coli DCO", "value": 25, "unit": "µM"},
      {"measurement": "MIC", "setting": "P. aeruginosa ISR-14-004; Pseudomonas aeruginosa, ISR14004, P. aeruginosa ISR-14-004 (clinical isolate), compound alone, MH2 broth with 160 μM bipyridyl added", "value": "> 50", "unit": "µM"},
      {"measurement": "MIC", "setting": "P. aeruginosa KW799/wt", "value": "> 50", "unit": "µM"},
      {"measurement": "MIC", "setting": "[5]", "value": 12.5, "unit": "µM"},
      {"measurement": "MIC", "setting": "S. aureus SG 511", "value": "> 50", "unit": "µM"},
      {"measurement": "MIC", "setting": "P. aeruginosa 01", "value": "> 50", "unit": "µM"},
      {"measurement": "MIC", "setting": "A. baumannii ATCC 17961", "value": 50, "unit": "µM"},
      {"measurement": "MIC", "setting": "[6]", "value": "> 50", "unit": "µM"},
      {"measurement": "MIC", "setting": "P. aeruginosa ARC 3506; [10]", "value": "> 50", "unit": "µM"},
      {"measurement": "antibacterial activity (in words)", "setting": "Gram-negative bacteria", "value": "moderately active"}
    ]},
    {"compound": "C[C@]1(Cn2ccnn2)[C@H](C(=O)O)N2C(=O)C[C@H]2S1(=O)=O", "note": "[Tazobactam, tazobactam, reference compound]", "values": [
      {"measurement": "MIC", "setting": "[7]; Acinetobacter baumannii, ATCC17978", "value": "< 10", "unit": "µg/mL"},
      {"measurement": "inhibition", "setting": "[8]", "value": "very slight"},
      {"measurement": "inhibition", "setting": "[9]; tazobactam alone @ 10 μg/ml", "value": "very slight"},
      {"measurement": "MIC", "setting": "A. baumannii ARC 5079; Acinetobacter baumannii, ARC5079, tazobactam alone, read-out: MIC", "value": "> 10", "unit": "µg/mL"},
      {"measurement": "MIC", "setting": "A.baumannii ISR14-005; Acinetobacter baumannii, ISR14005, A. baumannii ISR14-005, tazobactam alone", "value": "> 20", "unit": "µg/mL"},
      {"measurement": "MIC", "setting": "P. aeruginosa ARC 3502; ARC3502, tazobactam alone", "value": "> 10", "unit": "µg/mL"},
      {"measurement": "MIC", "setting": "P. aeruginosa ISR-14-003; Pseudomonas aeruginosa, ISR14003, P. aeruginosa ISR-14-003, tazobactam alone", "value": "> 20", "unit": "µg/mL"},
      {"measurement": "MIC", "setting": "B. dolosa AU0018", "value": "> 50", "unit": "µM"},
      {"measurement": "MIC", "setting": "P. aeruginosa ISR-14-004; Pseudomonas aeruginosa, ISR14004, P. aeruginosa ISR-14-004, tazobactam alone", "value": "> 20", "unit": "µg/mL"},
      {"measurement": "MIC", "setting": "P. aeruginosa ARC 3506; tazobactam alone", "value": "> 10", "unit": "µg/mL"}
    ]},
    {"compound": "Polymixin B [reference compound]", "values": [
      {"measurement": "MIC", "setting": "[7]; A. baumannii ATCC 17978-PNT-320 (cephalosporinase producing organism), MH2 broth with 160 μM bipyridyl added", "value": "<0.025", "unit": "µM"},
      {"measurement": "MIC", "setting": "[9]; MH2 broth with 160 μM bipyridyl added", "value": "<0.025", "unit": "µM"},
      {"measurement": "MIC", "setting": "A. baumannii ARC 5079; [10]", "value": "<0.025 to 0.1", "unit": "µM"},
      {"measurement": "MIC", "setting": "A.baumannii ISR14-005; A. baumannii ISR14-005 (clinical isolate), compound alone, MH2 broth with 160 μM bipyridyl added", "value": "<0.025", "unit": "µM"},
      {"measurement": "MIC", "setting": "P. aeruginosa ISR-14-003; P. aeruginosa ISR-14-003 (clinical isolate), compound alone, MH2 broth with 160 μM bipyridyl added", "value": 0.1, "unit": "µM"},
      {"measurement": "MIC", "setting": "P. aeruginosa ISR-14-004; P. aeruginosa ISR-14-004 (clinical isolate), compound alone, MH2 broth with 160 μM bipyridyl added", "value": 0.05, "unit": "µM"},
      {"measurement": "antibacterial activity (in words)", "setting": "Gram-negative bacteria", "value": "excellent activity"}
    ]}
  ]
}
